Reference: ChEMBL document CHEMBL1201862, “PubChem BioAssay data set” (2004)
The source made the active and inactive calls.

Legend:
Escherichia coli [1] = assay: microbe, parasite or virus in culture
[2] = inhibitors of intracellular T. cruzi replication, confirmation, NIH3T3 host cells, beta-gal luminescence (AID 2044); assay type: functional, cell-based;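 note: intracellular parasites grown in NIH/3T3 mouse fibroblasts as host cells; luminescent beta-galactosidase reporter signal from transgenic T. cruzi replicating inside host cells; inhibitors lower the luminescence signal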
Escherichia coli [3] = assay: microbe, parasite or virus in culture; remark: listed apart in the source
[4] = cytotoxicity toward NIH3T3 fibroblasts, dose response, counter-screen, cell-based, ATP luminescence, mouse fibroblasts (AID 2010); assay type: functional;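 note: cells exposed to compound for about 90 hours before reading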
CAAX prenyl protease 2 = CAAX prenyl protease 2 (Homo sapiens, UniProt Q9Y256); assay: human Rce1 protease inhibitors, dose response, biochemical, yeast membranes, quenched-peptide fluorescence, cherry-pick (AID 588849)
Trypsin = Trypsin (Sus scrofa, UniProt P00761); assay: porcine trypsin inhibitors, dose response, selectivity assay for Rce1 protease inhibitor project, biochemical, quenched peptide fluorescence, cherry-pick (AID 488789)
HEK293 [5] = assay: HEK cell cytotoxicity by LDH release, dose response, cytotoxicity control for IDE activator project, fluorescence, HEK cells (AID 588440); assay type: functional, cell-based; details: Homo sapiens;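 note: cytotoxicity by LDH release measuring loss of membrane integrity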
HEK293 [6] = assay: optical interference in Abeta FP readout, dose response, artefact control for IDE activator project, biochemical, fluorescence polarization (AID 588442); assay type: functional, cell-based; details: Homo sapiens
Insulin-degrading enzyme [7] = biological target: T1, Insulin-degrading enzyme (Homo sapiens, UniProt P14735); assay: activators of recombinant IDE enzyme, dose response, counter-screen for IDE activator project, biochemical, fluorescence polarization (AID 588681)
T1 sequence (P14735 whole entry): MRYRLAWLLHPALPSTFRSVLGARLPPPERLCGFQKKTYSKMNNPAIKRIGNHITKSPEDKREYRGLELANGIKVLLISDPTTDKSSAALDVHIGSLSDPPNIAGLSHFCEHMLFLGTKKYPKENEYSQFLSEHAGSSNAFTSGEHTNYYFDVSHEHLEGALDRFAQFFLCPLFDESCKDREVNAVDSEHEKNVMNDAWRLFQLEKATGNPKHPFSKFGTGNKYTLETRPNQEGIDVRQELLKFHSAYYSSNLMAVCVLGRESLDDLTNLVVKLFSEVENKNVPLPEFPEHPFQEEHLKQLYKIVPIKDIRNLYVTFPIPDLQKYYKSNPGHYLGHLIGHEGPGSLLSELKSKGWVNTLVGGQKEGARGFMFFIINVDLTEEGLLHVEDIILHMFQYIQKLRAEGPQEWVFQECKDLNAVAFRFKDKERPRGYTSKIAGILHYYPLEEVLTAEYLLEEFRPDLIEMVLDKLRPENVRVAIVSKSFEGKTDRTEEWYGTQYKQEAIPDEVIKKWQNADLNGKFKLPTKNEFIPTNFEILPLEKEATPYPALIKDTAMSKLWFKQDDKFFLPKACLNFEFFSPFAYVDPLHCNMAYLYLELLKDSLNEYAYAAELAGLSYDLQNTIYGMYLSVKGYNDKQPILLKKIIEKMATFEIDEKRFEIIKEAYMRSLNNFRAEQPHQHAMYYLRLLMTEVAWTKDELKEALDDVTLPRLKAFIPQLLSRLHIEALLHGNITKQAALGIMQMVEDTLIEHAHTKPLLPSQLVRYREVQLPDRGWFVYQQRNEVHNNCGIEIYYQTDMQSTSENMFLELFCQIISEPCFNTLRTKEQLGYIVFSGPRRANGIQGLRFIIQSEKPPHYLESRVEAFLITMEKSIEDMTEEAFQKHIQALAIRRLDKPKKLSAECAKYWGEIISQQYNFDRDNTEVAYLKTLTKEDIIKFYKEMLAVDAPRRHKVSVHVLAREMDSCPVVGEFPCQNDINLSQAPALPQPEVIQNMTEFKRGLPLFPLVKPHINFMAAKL

A-375 = assay: A375 melanoma cell viability reduction, dose response, counter-screen for MITF modulator project, cherry-pick samples, set 2 (AID 540335); assay type: functional, cell-based; details: Homo sapiens
Insulin-degrading enzyme [8] = biological target: T1, Insulin-degrading enzyme; assay: activators of endogenous IDE in HEK cells, dose response, cell-based, fluorescence polarization (AID 588439); assay type: functional
[9] = HepG2 cell cytotoxicity, dose response, cytotoxicity control for non-replicating M. tuberculosis project (AID 489018); assay type: functional; details: Mycobacterium tuberculosis
[10] = HEp-2 cell cytotoxicity, dose response, cytotoxicity control for RSV inhibitor project, HTS (AID 2410); assay type: functional; details: human respiratory syncytial virus
[11] = THP-1 cell cytotoxicity, dose response, cytotoxicity control for non-replicating M. tuberculosis project (AID 489025); assay type: functional
cells = assay type: functional
[12] = Vero E6 cell cytotoxicity, dose response, cytotoxicity control for non-replicating M. tuberculosis project, secondary assay (AID 492998); assay type: functional, VeroE6; details: Vero C1008

Sequence of CAAX prenyl protease 2 (Q9Y256 whole entry): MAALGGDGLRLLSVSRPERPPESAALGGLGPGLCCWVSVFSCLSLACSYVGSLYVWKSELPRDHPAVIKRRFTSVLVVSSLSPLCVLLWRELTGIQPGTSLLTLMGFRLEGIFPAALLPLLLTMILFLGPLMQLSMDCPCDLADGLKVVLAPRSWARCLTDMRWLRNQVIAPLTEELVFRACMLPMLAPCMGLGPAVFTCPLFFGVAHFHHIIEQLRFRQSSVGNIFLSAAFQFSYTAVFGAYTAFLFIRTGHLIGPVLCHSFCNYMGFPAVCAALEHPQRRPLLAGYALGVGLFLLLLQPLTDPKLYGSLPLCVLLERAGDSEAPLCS
Sequence of Trypsin (P00761 whole entry): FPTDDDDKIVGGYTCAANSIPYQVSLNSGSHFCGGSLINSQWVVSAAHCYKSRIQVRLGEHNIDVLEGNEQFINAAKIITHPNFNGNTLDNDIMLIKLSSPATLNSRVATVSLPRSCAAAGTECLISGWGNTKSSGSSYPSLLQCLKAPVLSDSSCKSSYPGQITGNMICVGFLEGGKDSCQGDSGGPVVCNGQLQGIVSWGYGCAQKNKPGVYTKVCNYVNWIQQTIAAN

O=[N+]([O-])c1ccc(-c2cc[nH]n2)o1
AC50 (Escherichia coli [1]): 24 µM (active) | EC50 [2]: 0.202 µM (active) | AC50 (Escherichia coli [3]): 12.5 µM (active) | EC50 [4]: > 60 µM (not active)

COc1cccc(Nc2nc(C)nc3c2oc2ccccc23)c1
AC50 (CAAX prenyl protease 2): 6 µM (active) | AC50 (Trypsin): 17 µM (active)

CN(C)CCCN(C(=O)CCc1ccccc1)c1nc2ccc(Br)cc2s1
IC50 (HEK293 [5]): 25.4 µM (inactive) | EC50 (HEK293 [6]): > 55.9 µM (inactive) | EC50 (Insulin-degrading enzyme [7]): > 54.7 µM (inactive) | AC50 (A-375): 18.6 µM (active) | EC50 (Insulin-degrading enzyme [8]): 29.5 µM (inactive) | CC50 [9]: 13.6 µM (active) | CC50 [10]: 15.7 µM (active) | CC50 [11]: 17.6 µM (active) | IC50 (cells): 12.7 µM (active) | CC50 [12]: 10.3 µM (active)
